# Test results as given in patent US7015237B2, “Pyridine matrix metalloproteinase inhibitors” (Warner-Lambert Company, priority 2001, dated 2006).
# Tested on: not given
# Experiment: not given
# Settings: not given
row,Compound,melting point [°C]
1,"O=C(NCc1ccc(Cl)cc1)c1cncc(C(=O)NCc2ccc(Cl)cc2)c1 [Example 2, Pyridine-3,5-dicarboxylic acid bis-(4-chloro-benzylamide)]",224 to 225
2,"O=C(OCc1ccc2c(c1)OCO2)c1cncc(C(=O)OCc2ccc3c(c2)OCO3)c1 [Example 5, Pyridine-3,5-dicarboxylic acid bis-(1,3-benzodioxol-5-ylmethyl) ester]",113 to 114

# Target: MMP-13 (catalytic domain of collagenase 3) (Homo sapiens, UniProt P45452)
# Experiment: Thiopeptolide substrate hydrolysis assay, MMP-13
# Type: biochemical
# Settings: catalytic domain of collagenase 3; Table 1; read-out: MMP-13 IC50
# Source text: The assays used to evaluate the biological activity of the invention compounds are well known and routinely used by those skilled in the study of MMP inhibitors and their use to treat clinical conditions.
# The assays measure the amount by which a test compound reduces the hydrolysis of a thiopeptolide substrate catalyzed by a matrix metalloproteinase enzyme. Such assays are described in detail by Ye et al., in Biochemistry, 1992; 31(45):11231–11235, which is incorporated herein by reference.
# Thiopeptolide substrates show virtually no decomposition or hydrolysis at or below neutral pH in the absence of a matrix metalloproteinase enzyme. A typical thiopeptolide substrate commonly utilized for assays is Ac-Pro-Leu-Gly-thioester-Leu-Leu-Gly-OEt. A 100-μL assay mixture will contain 50 mM of N-2-hydroxyethylpiperazine-N′-2-ethanesulfonic acid buffer (“HEPES”) at pH 7.0, 10 mM CaCl2, 100 μM thiopeptolide substrate, and 1 mM 5,5′-dithio-bis-(2-nitro-benzoic acid) (DTNB). The thiopeptolide substrate concentration may be varied from, for example, 10 to 800 μM to obtain Km and Kcat values. The change in absorbance at 405 nm is monitored on a Thermo Max microplate reader (Molecular Devices, Menlo Park, Calif.) at room temperature (22° C.). The calculation of the amount of hydrolysis of the thiopeptolide substrate is based on E412=13600 M^−1 cm^−1 for the DTNB-derived product 3-carboxy-4-nitrothiophenoxide. Assays are carried out with and without matrix metalloproteinase inhibitor compounds, and the amount of hydrolysis is compared for a determination of inhibitory activity of the test compounds.
# In the tables, MMP-1 refers to full-length interstitial collagenase; MMP-3 refers to the catalytic domain of stromelysin-1; MMP-13 refers to the catalytic domain of collagenase 3. Test compounds were evaluated at various concentrations to determine their respective IC50 values.
row,Compound,IC50 [µM]
1,"COc1ncc(C(=O)NCc2ccc3c(c2)OCO3)cc1C(=O)NCc1ccc2c(c1)OCO2 [Example 4, 2-Methoxy-pyridine-3,5-dicarboxylic acid bis-[(1,3-benzodioxol-5-ylmethyl)-amide]]",0.23
2,"O=C(NCc1ccc2c(c1)OCO2)c1ccnc(C(=O)NCc2ccc3c(c2)OCO3)c1 [Example 8, Pyridine-2,4-dicarboxylic acid bis-[(1,3-benzodioxol-5-ylmethyl)-amide]]",0.014
3,"COc1cccc(CNC(=O)c2ccnc(C(=O)NCc3cccc(OC)c3)c2)c1 [Example 1, Pyridine-2,4-dicarboxylic acid bis-(3-methoxy-benzylaride)]",0.035

# Same assay, conditions: catalytic domain, human; combinatorial compounds of Example 14; Table 2; read-out: MMP-13 IC50 CD/Human
row,Compound,IC50 [µM]
1,"O=C(NCc1cc(Cl)cc(Cl)c1)c1ccnc(C(=O)NCc2cc(Cl)cc(Cl)c2)c1 [Example 14.80, Pyridine-2,4-dicarboxylic acid bis-(3,5-dichloro-benzylamide)]",30
2,"O=C(NCc1ccc(F)c(Cl)c1)c1ccnc(C(=O)NCc2ccc(F)c(Cl)c2)c1 [Example 14.42, Pyridine-2,4-dicarboxylic acid bis-(3-chloro-4-fluoro-benzylamide)]",0.04
3,"O=C(NCCC(c1ccccc1)c1ccccc1)c1ccnc(C(=O)NCCC(c2ccccc2)c2ccccc2)c1 [Example 14.47, Pyridine-2,4-dicarboxylic acid bis-[(3,3-diphenyl-propyl)-amide]]",30
4,"CCc1ccc(CCNC(=O)c2ccnc(C(=O)NCCc3ccc(CC)cc3)c2)cc1 [Example 14.19, Pyridine-2,4-dicarboxylic acid bis-{[2-(4-ethyl-phenyl)-ethyl]-amide}]",30
5,"O=C(NCc1ccc(C(F)(F)F)cc1)c1ccnc(C(=O)NCc2ccc(C(F)(F)F)cc2)c1 [Example 14.61, Pyridine-2,4-dicarboxylic acid bis-(4-trifluoromethyl-benzylamide)]",30
6,"O=C(NCCc1ccc(O)cc1)c1ccnc(C(=O)NCCc2ccc(O)cc2)c1 [Example 14.66, Pyridine-2,4-dicarboxylic acid bis-{[2-(4-hydroxy-phenyl)-ethyl]-amide}]",30
7,"COc1cccc(CNC(=O)c2ccnc(C(=O)NCc3cccc(OC)c3)c2)c1 [Example 14.1, Pyridine-2,4-dicarboxylic acid bis-(3-methoxy-benzylamide)]",0.038
8,"O=C(NCc1cccc(C(F)(F)F)c1)c1ccnc(C(=O)NCc2cccc(C(F)(F)F)c2)c1 [Example 14.35, Pyridine-2,4-dicarboxylic acid bis-(3-trifluoromethyl-benzylamide)]",0.31
9,"O=C(NCc1cccc2ccccc12)c1ccnc(C(=O)NCc2cccc3ccccc23)c1 [Example 14.6, Pyridine-2,4-dicarboxylic acid bis-[(naphthalen-1-ylmethyl)-amide]]",30
10,"O=C(NCc1cccc(OC(F)F)c1)c1ccnc(C(=O)NCc2cccc(OC(F)F)c2)c1 [Example 14.37, Pyridine-2,4-dicarboxylic acid bis-(3-difluoromethoxy-benzylamide)]",0.26
11,"COc1ccc2[nH]cc(CCNC(=O)c3ccnc(C(=O)NCCc4c[nH]c5ccc(OC)cc45)c3)c2c1 [Example 14.78, Pyridine-2,4-dicarboxylic acid bis-{[2-(5-methoxy-1H-indol-3-yl)-ethyl]-amide}]",30
12,"O=C(NCc1ccccc1-c1ccccc1)c1ccnc(C(=O)NCc2ccccc2-c2ccccc2)c1 [Example 14.23, Pyridine-2,4-dicarboxylic acid bis-[(biphenyl-2-ylmethyl)-amide]]",30
13,"Nc1ccc(CNC(=O)c2ccnc(C(=O)NCc3ccc(N)cc3)c2)cc1 [Example 14.44, Pyridine-2,4-dicarboxylic acid bis-(4-amino-benzylamide)]",70
14,"O=C(NC(Cc1ccccc1)c1ccccc1)c1ccnc(C(=O)NC(Cc2ccccc2)c2ccccc2)c1 (stereo not drawn) [Example 14.21, Pyridine-2,4-dicarboxylic acid bis-[(1,2-diphenyl-ethyl)-amide]]",30
15,"O=C(NCc1cccc(F)c1)c1ccnc(C(=O)NCc2cccc(F)c2)c1 [Example 14.9, Pyridine-2,4-dicarboxylic acid bis-(3-fluoro-benzylamide)]",0.18
16,"O=C(NCCc1c[nH]c2ccccc12)c1ccnc(C(=O)NCCc2c[nH]c3ccccc23)c1 [Example 14.79, Pyridine-2,4-dicarboxylic acid bis-{[2-(1H-indol-3-yl)-ethyl]-amide}]",30
17,"CC(NC(=O)c1ccnc(C(=O)NC(C)c2cccc3ccccc23)c1)c1cccc2ccccc12 (stereo not drawn) [Example 14.65, Pyridine-2,4-dicarboxylic acid bis-[(1-naphthalen-1-yl-ethyl)-amide]]",30

row,Compound,IC50 [µM]
1,"COc1ccc(CNC(=O)c2ccnc(C(=O)NCc3ccc(OC)cc3)c2)cc1 [Example 14.8, Pyridine-2,4-dicarboxylic acid bis-(4-methoxy-benzylamide)]",0.13
2,"O=C(NCc1ccc(Cl)cc1Cl)c1ccnc(C(=O)NCc2ccc(Cl)cc2Cl)c1 [Example 14.22, Pyridine-2,4-dicarboxylic acid bis-(2,4-dichloro-benzylamide)]",30
3,"O=C(NCc1ccc(F)c(C(F)(F)F)c1)c1ccnc(C(=O)NCc2ccc(F)c(C(F)(F)F)c2)c1 [Example 14.39, Pyridine-2,4-dicarboxylic acid bis-(4-fluoro-3-trifluoromethyl-benzylamide)]",0.28
4,"O=C(NCc1cccs1)c1ccnc(C(=O)NCc2cccs2)c1 [Example 14.60, Pyridine-2,4-dicarboxylic acid bis-[(thiophen-2-ylmethyl)-amide]]",13
5,"O=C(NCc1ccncc1)c1ccnc(C(=O)NCc2ccncc2)c1 [Example 14.32, Pyridine-2,4-dicarboxylic acid bis-[(pyridin-4-ylmethyl)-amide]]",2
6,"O=C(NCc1ccccc1F)c1ccnc(C(=O)NCc2ccccc2F)c1 [Example 14.50, Pyridine-2,4-dicarboxylic acid bis-(2-fluoro-benzylamide)]",84
7,"O=C(NCc1ccc2c(c1)OCO2)c1ccnc(C(=O)NCc2ccc3c(c2)OCO3)c1 [Example 14.2, Pyridine-2,4-dicarboxylic acid bis-[(1,3-benzodioxol-5-ylmethyl)-amide]]",0.033
8,"Cc1ccc(CNC(=O)c2ccnc(C(=O)NCc3ccc(C)o3)c2)o1 [Example 14.62, Pyridine-2,4-dicarboxylic acid bis-[(5-methyl-furan-2-ylmethyl)-amide]]",88
9,"COc1ccc(C(NC(=O)c2ccnc(C(=O)NC(c3ccc(OC)cc3)c3ccc(OC)cc3)c2)c2ccc(OC)cc2)cc1 [Example 14.46, Pyridine-2,4-dicarboxylic acid bis-{[bis-(4-methoxy-phenyl)-methyl]-amide}]",30
10,"Pyridine-2,4-dicarboxylic acid bis-indan-1-ylamide [Example 14.73]",0.44
11,"O=C(NCc1cccc(OC(F)(F)F)c1)c1ccnc(C(=O)NCc2cccc(OC(F)(F)F)c2)c1 [Example 14.67, Pyridine-2,4-dicarboxylic acid bis-(3-trifluoromethoxy-benzylamide)]",4
12,"O=C(NCc1cccc(Cl)c1)c1ccnc(C(=O)NCc2cccc(Cl)c2)c1 [Example 14.25, Pyridine-2,4-dicarboxylic acid bis-(3-chloro-benzylamide)]",0.074
13,"Pyridine-2,4-dicarboxylic acid bis-benzylamide [Example 14.5]",0.29
14,"O=C(NCc1ccc(Cl)cc1)c1ccnc(C(=O)NCc2ccc(Cl)cc2)c1 [Example 14.4, Pyridine-2,4-dicarboxylic acid bis-(4-chloro-benzylamide)]",0.3
15,"O=C(NCc1cccnc1)c1ccnc(C(=O)NCc2cccnc2)c1 [Example 14.57, Pyridine-2,4-dicarboxylic acid bis-[(pyridin-3-ylmethyl)-amide]]",34
16,"O=C(NCCc1ccccc1Oc1ccccc1)c1ccnc(C(=O)NCCc2ccccc2Oc2ccccc2)c1 [Example 14.12, Pyridine-2,4-dicarboxylic acid bis-{[2-(2-phenoxy-phenyl)-ethyl]-amide}]",30
17,"Cc1ccc(CNC(=O)c2ccnc(C(=O)NCc3ccc(C)cc3)c2)cc1 [Example 14.54, Pyridine-2,4-dicarboxylic acid bis-(4-methyl-benzylamide)]",1.5
